According to ChEMBL document CHEMBL3046749, “Synthesis and antimicrobial activity of novel bis-azaphenothiazines” (2013):
Converted amounts (≈) assume the structure as drawn. The source made the active and inactive calls. The calls are words filed in the database; no cut-off is given here.

Experiments:
Format in all cases: functional
Klebsiella pneumoniae [1] = assay: Antibacterial activity against Klebsiella pneumoniae MTCC 432 after 16 hr by cup-plate method; conditions: MTCC 432, 16 h
[2] = system: Staphylococcus epidermidis; assay: Antibacterial activity against Staphylococcus epidermidis MTCC 435 after 16 hr by cup-plate method; conditions: MTCC 435, 16 h
Bacillus subtilis [3] = assay: Antibacterial activity against Bacillus subtilis MTCC 441 after 16 hr by cup-plate method; conditions: MTCC 441, 16 h
Pseudomonas aeruginosa [4] = assay: Antibacterial activity against Pseudomonas aeruginosa MTCC 424 at 100 ug/ml after 16 to 18 hr by cup-plate method; conditions: read-out: IZ
Escherichia coli [5] = assay: Antibacterial activity against Escherichia coli MTCC 443 after 16 hr by cup-plate method; conditions: MTCC 443, 16 h
Klebsiella pneumoniae [6] = assay: Antibacterial activity against Klebsiella pneumoniae MTCC 432 at 100 ug/ml after 16 to 18 hr by cup-plate method; conditions: read-out: IZ
Bacillus subtilis [7] = assay: Antibacterial activity against Bacillus subtilis MTCC 441 at 100 ug/ml after 16 to 18 hr by cup-plate method; conditions: read-out: IZ
Salmonella typhi [8] = assay: Antibacterial activity against Salmonella enterica subsp. enterica serovar Typhi MTCC 733 at 100 ug/ml after 16 to 18 hr by cup-plate method; conditions: read-out: IZ
[9] = system: Staphylococcus epidermidis; assay: Antibacterial activity against Staphylococcus epidermidis MTCC 435 at 100 ug/ml after 16 to 18 hr by cup-plate method; conditions: read-out: IZ
Staphylococcus aureus [10] = assay: Antibacterial activity against Staphylococcus aureus MTCC 096 at 100 ug/ml after 16 to 18 hr by cup-plate method; conditions: read-out: IZ
Salmonella typhi [11] = assay: Antibacterial activity against Salmonella enterica subsp. enterica serovar Typhi MTCC 733 after 16 hr by cup-plate method; conditions: MTCC 733, 16 h
Pseudomonas aeruginosa [12] = assay: Antibacterial activity against Pseudomonas aeruginosa MTCC 424 after 16 hr by cup-plate method; conditions: MTCC 424, 16 h
Staphylococcus aureus [13] = assay: Antibacterial activity against Staphylococcus aureus MTCC 096 after 16 hr by cup-plate method; conditions: MTCC 096, 16 h
Aspergillus flavus [14] = assay: Antifungal activity against Aspergillus flavus MTCC 277 at 100 ug/ml after 28 to 30 hr by cup-plate method; conditions: for zone of inhibition at 100 µg/mL: read-out: IZ
Aspergillus niger [15] = assay: Antifungal activity against Aspergillus niger MTCC 282 at 100 ug/ml after 28 to 30 hr by cup-plate method; conditions: for zone of inhibition at 100 µg/mL: read-out: IZ
Escherichia coli [16] = assay: Antibacterial activity against Escherichia coli MTCC 443 at 100 ug/ml after 16 to 18 hr by cup-plate method; conditions: read-out: IZ
Aspergillus niger [17] = assay: Antifungal activity against Aspergillus niger MTCC 282 after 28 to 30 hr by cup-plate method
Aspergillus fumigatus [18] = assay: Antifungal activity against Aspergillus fumigatus MTCC 343 after 28 to 30 hr by cup-plate method
Aspergillus fumigatus [19] = assay: Antifungal activity against Aspergillus fumigatus MTCC 343 at 100 ug/ml after 28 to 30 hr by cup-plate method; conditions: for zone of inhibition at 100 µg/mL: read-out: IZ
Candida albicans [20] = assay: Antifungal activity against Candida albicans MTCC 227 at 100 ug/ml after 28 to 30 hr by cup-plate method; conditions: for zone of inhibition at 100 µg/mL: read-out: IZ
Aspergillus flavus [21] = assay: Antifungal activity against Aspergillus flavus MTCC 277 after 28 to 30 hr by cup-plate method
Candida albicans [22] = assay: Antifungal activity against Candida albicans MTCC 227 after 28 to 30 hr by cup-plate method

Structure (SMILES)	MIC (Klebsiella pneumoniae [1])	MIC [2]	MIC (Bacillus subtilis [3])	zone of inhibition at 100 µg/mL (Pseudomonas aeruginosa [4])	MIC (Escherichia coli [5])	zone of inhibition at 100 µg/mL (Klebsiella pneumoniae [6])	zone of inhibition at 100 µg/mL (Bacillus subtilis [7])	zone of inhibition at 100 µg/mL (Salmonella typhi [8])	zone of inhibition at 100 µg/mL [9]	zone of inhibition at 100 µg/mL (Staphylococcus aureus [10])	MIC (Pseudomonas aeruginosa [12])	MIC (Staphylococcus aureus [13])	zone of inhibition at 100 µg/mL (Aspergillus flavus [14])	zone of inhibition at 100 µg/mL (Aspergillus niger [15])	zone of inhibition at 100 µg/mL (Escherichia coli [16])	MIC (Aspergillus niger [17])	MIC (Aspergillus fumigatus [18])	zone of inhibition at 100 µg/mL (Aspergillus fumigatus [19])	MIC (Aspergillus flavus [21])	MIC (Candida albicans [22])	other results
O=C(O)c1cn(C2CC2)c2cc(N3CCNCC3)c(F)cc2c1=O [CIPROFLOXACIN]	6.25 µg/mL (≈ 18.9 µM)	6.25 µg/mL (≈ 18.9 µM)	6.25 µg/mL (≈ 18.9 µM)	18 mm	6.25 µg/mL (≈ 18.9 µM)	17 mm	18 mm	19 mm	16 mm	19 mm	6.25 µg/mL (≈ 18.9 µM)	6.25 µg/mL (≈ 18.9 µM)									MIC (Salmonella typhi [11]): 6.25 mM (≈ 2070 µg/mL)
Brc1ccc2c(c1)Sc1cccnc1N2CCCCCCN1c2ccc(Br)cc2Sc2cccnc21	25 µg/mL (≈ 39 µM)	6.25 µg/mL (≈ 9.76 µM)	12.5 µg/mL (≈ 19.5 µM)	13 mm	6.25 µg/mL (≈ 9.76 µM)	12 mm	13 mm	11 mm	14 mm	12 mm	6.25 µg/mL (≈ 9.76 µM)	25 µg/mL (≈ 39 µM)	12 mm	11 mm	12 mm	> 50 µg/mL	25 µg/mL (≈ 39 µM)	11 mm	12.5 µg/mL (≈ 19.5 µM)	25 µg/mL (≈ 39 µM)	zone of inhibition at 100 µg/mL (Candida albicans [20]): 11 mm
Clc1ccc2c(c1)Sc1cccnc1N2CCCCN1c2ccc(Cl)cc2Sc2cccnc21	> 50 µg/mL	6.25 µg/mL (≈ 11.9 µM)	50 µg/mL (≈ 95.5 µM)	11 mm	12.5 µg/mL (≈ 23.9 µM)	11 mm	11 mm	12 mm	12 mm	12 mm	50 µg/mL (≈ 95.5 µM)	25 µg/mL (≈ 47.8 µM)	12 mm	10 mm	12 mm	> 50 µg/mL	50 µg/mL (≈ 95.5 µM)	11 mm	12.5 µg/mL (≈ 23.9 µM)	25 µg/mL (≈ 47.8 µM)	zone of inhibition at 100 µg/mL (Candida albicans [20]): 11 mm
c1ccc2c(c1)Sc1cccnc1N2CCCCN1c2ccccc2Sc2cccnc21	25 µg/mL (≈ 55 µM)	12.5 µg/mL (≈ 27.5 µM)	> 50 µg/mL	13 mm	> 50 µg/mL	12 mm	10 mm	12 mm	12 mm	11 mm	6.25 µg/mL (≈ 13.7 µM)	50 µg/mL (≈ 110 µM)			11 mm	> 50 µg/mL	> 50 µg/mL		> 50 µg/mL	> 50 µg/mL	inhibition zone (IZ) (Aspergillus flavus [14]): inactive; inhibition zone (IZ) (Aspergillus niger [15]): inactive; inhibition zone (IZ) (Aspergillus fumigatus [19]): inactive; inhibition zone (IZ) (Candida albicans [20]): inactive
